This passage reports IC50 results from patent US8598202B2, “Aryl-hydroxyethylamino-pyrimidines and triazines as modulators of fatty acid amide hydrolase” (Janssen Pharmaceutica NV, priority 2008, dated 2013).

Each structure is given as a SMILES string. Structures can show the parent of a compound that is named as a salt. Some results are limits rather than exact numbers.

One assay concerns the target T1, FAAH (Homo sapiens, UniProt O00519).
T1 sequence (O00519 1-579): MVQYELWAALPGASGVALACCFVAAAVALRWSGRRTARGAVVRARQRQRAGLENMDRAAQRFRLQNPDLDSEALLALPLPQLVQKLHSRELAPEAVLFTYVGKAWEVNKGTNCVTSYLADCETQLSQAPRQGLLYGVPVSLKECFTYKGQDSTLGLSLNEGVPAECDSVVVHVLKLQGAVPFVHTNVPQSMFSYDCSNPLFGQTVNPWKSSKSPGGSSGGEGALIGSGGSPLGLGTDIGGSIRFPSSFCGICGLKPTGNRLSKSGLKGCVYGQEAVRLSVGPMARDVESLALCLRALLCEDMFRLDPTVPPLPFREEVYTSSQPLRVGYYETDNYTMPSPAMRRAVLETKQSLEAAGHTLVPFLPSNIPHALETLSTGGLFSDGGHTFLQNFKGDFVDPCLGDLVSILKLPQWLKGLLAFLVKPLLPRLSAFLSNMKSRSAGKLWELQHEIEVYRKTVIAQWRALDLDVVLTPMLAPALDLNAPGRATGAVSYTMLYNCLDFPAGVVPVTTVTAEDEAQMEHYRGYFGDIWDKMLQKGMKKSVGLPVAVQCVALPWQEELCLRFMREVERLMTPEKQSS
Briefly: Assay Method 1: FAAH assay, 3H-anandamide hydrolysis in homogenate of T84 cells or SK-N-MC cells transfected with human FAAH.

For the next assay, the target named is T2, Rat FAAH-1 (Rattus norvegicus, UniProt P97612).
T2 sequence (P97612 1-579): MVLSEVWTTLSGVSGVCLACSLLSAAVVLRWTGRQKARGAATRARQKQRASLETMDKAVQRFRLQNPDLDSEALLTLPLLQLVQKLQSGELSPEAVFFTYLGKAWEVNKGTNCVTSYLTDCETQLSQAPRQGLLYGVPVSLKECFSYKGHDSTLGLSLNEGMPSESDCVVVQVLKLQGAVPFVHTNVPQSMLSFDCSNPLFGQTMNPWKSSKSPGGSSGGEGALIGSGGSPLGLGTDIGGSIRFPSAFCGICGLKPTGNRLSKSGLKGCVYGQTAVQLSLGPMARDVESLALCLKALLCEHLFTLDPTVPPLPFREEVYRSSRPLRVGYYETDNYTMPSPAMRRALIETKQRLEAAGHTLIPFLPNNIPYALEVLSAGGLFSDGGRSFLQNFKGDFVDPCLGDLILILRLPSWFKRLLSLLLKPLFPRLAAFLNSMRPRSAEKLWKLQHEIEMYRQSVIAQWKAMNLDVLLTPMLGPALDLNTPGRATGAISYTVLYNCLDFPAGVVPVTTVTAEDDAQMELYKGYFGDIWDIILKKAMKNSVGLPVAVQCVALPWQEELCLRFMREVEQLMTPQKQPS
Briefly: Assay Method 2: rat FAAH-1 assay, 3H-anandamide hydrolysis in homogenate of SK-N-MC cells transfected with rat FAAH.

One may read the IC50 as the concentration needed to halve the response being measured. A low value points to greater potency in that assay. `Nc1nc(NC[C@H](O)c2ccccc2)cc(-c2ccc(C(F)(F)F)c(Cl)c2)n1` [Example 61, (1R)-2-({2-Amino-6-[3-chloro-4-(trifluoromethyl)phenyl]pyrimidin-4-yl}amino)-1-phenylethanol trifluoroacetic acid salt]: the 50% inhibitory concentration (IC50) against FAAH was determined as 6 nM; at Rat FAAH-1 it was 28 nM.

Consider `O[C@@H](CNc1cc(-c2ccc(C(F)(F)F)c(Cl)c2)ncn1)c1ccc(F)cc1` [Example 62, (1R)-2-({6-[3-Chloro-4-(trifluoromethyl)phenyl]ivrimidin-4-yl}amino)-1-(4-fluorophenyl)ethanol], for which the IC50 against FAAH was found to be 2 nM; against Rat FAAH-1 it was 3 nM.

As to `COc1ccc(-c2cc(NC[C@H](O)c3ccccc3)ncn2)cn1` [Example 63, (1R)-2-{[6-(6-Methoxypyridin-3-yl)pyrimidin-4-yl]amino}-1-phenylethanol], the IC50 came out at 450 nM against FAAH and 2000 nM against Rat FAAH-1.

With `CCOc1ccc(-c2cc(NC[C@H](O)c3ccccc3)ncn2)cn1` [Example 64, (1R)-2-{[6-(6-Ethoxypyridin-3-yl)pyrimidin-4-yl]amino}-1-phenylethanol], the IC50 amounted to 50 nM against FAAH and 220 nM against Rat FAAH-1.

On to `CN(C)c1ccc(-c2cc(NC[C@H](O)c3ccccc3)ncn2)cc1` [Example 65, (1R)-2-({6-[4-(Dimethylamino)phenyl]pyrimidin-4-yl}amino)-1-phenylethanol], for which the IC50 against FAAH turned out to be 38 nM; at Rat FAAH-1, 6000 nM.

Take `CS(=O)(=O)c1ccc(-c2cc(NC[C@H](O)c3ccccc3)ncn2)cc1` [Example 66, (1R)-2-({6-[4-(Methylsulfonyl)phenyl]pyrimidin-4-yl}amino)-1-phenylethanol]: the IC50 at FAAH stood at 73 nM; against Rat FAAH-1, 140 nM.

With `O[C@@H](CNc1cc(-c2cnc(N3CCOCC3)nc2)ncn1)c1ccccc1` [Example 69, (1R)-2-[(2′-Morpholin-4-yl-4,5′-bipyrimidin-6-yl)amino]-1-phenylethanol], the IC50 on FAAH is 900 nM; against Rat FAAH-1, > 10000 nM.

`O[C@@H](CNc1cc(-c2ccc(N3CCOCC3)nc2)ncn1)c1ccccc1` [Example 70, (1R)-2-{[6-(6-Morpholin-4-ylpyridin-3-yl)pyrimidin-4-yl]amino}-1-Phenylethanol]: the IC50 on FAAH was 800 nM; at Rat FAAH-1, > 10000 nM.

Turning to `COc1ccc(-c2cc(NC[C@H](O)c3ccccc3)ncn2)cc1F` [Example 71, (1R)-2-{[6-(3-Fluoro-4-methoxyphenyl)pyrimidin-4-yl]amino}-1-pPhenylethanol], the half-inhibitory concentration (IC50) was determined as 14 nM against FAAH and 76 nM against Rat FAAH-1.

For `Cc1nc(NC[C@H](O)c2ccccc2)cc(-c2ccc(C(F)(F)F)c(Cl)c2)n1` [Example 73, (1R)-2-({6-[3-Chloro-4-(trifluoromethyl)phenyl]-2-methylpyrimidin-4-yl}amino)-1-phenylethanol], the IC50 against FAAH amounted to 20 nM; against Rat FAAH-1, 40 nM.

In the case of `CN(C)S(=O)(=O)c1ccc(-c2cc(NC[C@H](O)c3ccccc3)ncn2)cc1` [Example 76, 4-(6-{[(2R)-2-Hydroxy-2-phenylethyl]amino}pyrimidin-4-yl)-N,N-dimethylbenzenesulfonamide], the IC50 against FAAH amounted to 14 nM; against Rat FAAH-1, 126 nM.

As to `N#Cc1ccc(-c2cc(NC[C@H](O)c3ccccc3)ncn2)cn1` [Example 77, 5-(6-{[(2R)-2-Hydroxy-2-phenylethyl]amino}pyrimidin-4-yl)pyridine-2-carbonitrile], the IC50 against FAAH stood at 1000 nM; at Rat FAAH-1 it was 2200 nM.

In the case of `CN(C)c1ccc(-c2cc(NC[C@H](O)c3ccccc3)ncn2)cn1` [Example 78, (1R)-2-({6-[6-(Dimethylamino)pyridin-3-yl]pyrimidin-4-yl}amino)-1-phenylethanol], the IC50 is 633 nM on FAAH and > 10000 nM at Rat FAAH-1.

Turning to `O=S(=O)(c1ccc(-c2cc(NC[C@H](O)c3ccccc3)ncn2)cc1)N1CCCCC1` [Example 79, (1R)-1-Phenyl-2-({6-[4-(piperidin-1-ylsulfonyl)phenyl]pyrimidin-4-yl}amino)ethanol], the IC50 at FAAH came to 542 nM; against Rat FAAH-1, 530 nM.

In the case of `O=S(=O)(c1ccc(-c2cc(NC[C@H](O)c3ccccc3)ncn2)cc1)N1CCCC1` [Example 80, (1R)-1-Phenyl-2-({6-[4-(Pyrrolidin-1-ylsulfonyl)phenyl]pyrimidin-4-yl}amino)ethanol], the IC50 at FAAH is 68 nM; against Rat FAAH-1, 665 nM.

Turning to `NS(=O)(=O)c1ccc(-c2cc(NC[C@H](O)c3ccccc3)ncn2)cc1` [Example 81, 4-(6-{[(2R)-2-Hydroxy-2-phenylethyl]amino}pyrimidin-4-yl)benzenesulfonamide], the values for the IC50 on FAAH and against Rat FAAH-1 were 110 nM and 492 nM, respectively.

On to `O[C@@H](CNc1cc(-c2ccc(F)c(Cl)c2)ncn1)c1ccccc1` [Example 83, (1R)-2-{[6-(3-Chloro-4-fluorophenyl)pyrimidin-4-yl]amino}-1-Phenylethanol trifluoroacetic acid salt], for which the IC50 worked out at 210 nM at FAAH and 654 nM at Rat FAAH-1.

Regarding `CSc1cccc(-c2cc(NC[C@H](O)c3ccccc3)ncn2)c1` [Example 84, (1R)-2-({6-[3-(Methylsulfanyl)phenyl]pyrimidin-4-yl}amino)-1-phenylethanol trifluoroacetic acid salt], the IC50 against FAAH was determined as 44 nM; against Rat FAAH-1, 965 nM.

With `O[C@@H](CNc1cc(-c2ccc3[nH]ccc3c2)ncn1)c1ccccc1` [Example 85, (1R)-2-{[6-(1H-Indol-5-yl)pyrimidin-4-yl]amino}-1-phenylethanol trifluoroacetic acid salt], the IC50 on FAAH is 18 nM; at Rat FAAH-1, 5000 nM.

Consider `O[C@@H](CNc1cc(-c2csc3ccccc23)ncn1)c1ccccc1` [Example 87, (1R)-2-{[6-(1-Benzothiophen-3-yl)pyrimidin-4-yl]amino}-1-phenylethanol trifluoroacetic acid salt], for which the IC50 amounted to 42 nM at FAAH and 1400 nM against Rat FAAH-1.

As for `N#Cc1ccc(-c2cc(NC[C@H](O)c3ccccc3)ncn2)cc1F` [Example 88, 2-Fluoro-4-(6-{[(2R)-2-hydroxy-2-phenylethyl]amino}pyrimidin-4-yl)benzonitrile trifluoroacetic acid salt], the IC50 on FAAH was found to be 65 nM; against Rat FAAH-1, 33 nM.

As for `N#Cc1cc(-c2cc(NC[C@H](O)c3ccccc3)ncn2)ccc1F` [Example 89, 2-Fluoro-5-(6-{[(2R)-2-hydroxy-2-phenylethyl]amino}pyrimidin-4-yl)benzonitrile trifluoroacetic acid salt], the IC50 at FAAH was found to be 1600 nM; against Rat FAAH-1, 1400 nM.

For `Cn1ccc2cc(-c3cc(NC[C@H](O)c4ccccc4)ncn3)ccc21` [Example 90, (1R)-2-{[6-(1-Methyl-1H-indol-5-yl)pyrimidin-4-yl]amino}-1-phenylethanol trifluoroacetic acid salt], the IC50 against FAAH was 4 nM; on Rat FAAH-1, 675 nM.

For the molecule `CC(C)Sc1ccc(-c2cc(NC[C@H](O)c3ccccc3)ncn2)cc1` [Example 91, (1R)-2-[(6-{4-[(1-Methylethyl)sulfanyl]phenyl}pyrimidin-4-yl)amino]-1-phenylethanol trifluoroacetic acid salt], the figures for the IC50 against FAAH and on Rat FAAH-1 were 3 nM and 57 nM, respectively.
